Data published in patent publication US9044420B2, “Immunogenic compositions and methods of using the compositions for inducing humoral and cellular immune responses” (IMMUNE DESIGN CORP., priority 2011, dated 2015).

Tests used:
[1] = test system: Splenic CD4 T cell responses (SIV-Gag DD13 epitope); assay: Splenic CD4 T cell responses by ICS after SIV-Gag protein with or without GLA-SE (Example 8); assay type: in vivo, C57BL/6 mice; conditions: 5 μg SIV-Gag protein + 5 μg GLA-SE vs SE alone or PBS, i.m. d0/d21, day 5 post-boost
Description: C57BL/6 mice (4 per group) were immunized intramuscularly via a prime/boost immunization regimen (d0 prime/d21 boost) with 5 μg of recombinant SIV-Gag protein+5 μg of GLA-SE, SE alone, or PBS. Splenic CD4 T cell responses were measured on day 5 post-boost by ICS for IFN-γ, TNF-α, and IL-2 after ex vivo re-stimulation with SIV-Gag CD4 T cell epitope containing peptide DD13 (amino acids 299-311 of SIV-GAG; DRFYKSLRAEQTD; SEQ ID NO: 45)

HSV = conditions: continuous suppressive administration, early intervention; Corey et al. 2004; cited from earlier work

## CCCCCCCCCCCCCC(=O)O[C@H](CCCCCCCCCCC)CC(=O)O[C@@H]1[C@@H](NC(=O)C[C@H](CCCCCCCCCCC)OC(=O)CCCCCCCCCCCCC)[C@H](OC[C@H]2O[C@H](O)[C@H](NC(=O)C[C@H](O)CCCCCCCCCCC)[C@@H](OC(=O)C[C@H](O)CCCCCCCCCCC)[C@@H]2O)O[C@H](CO)[C@H]1OP(=O)(O)O [GLA, glucopyranosyl lipid A]
[1]
  Th1 CD4 T cell response after immunization with SIV-Gag recombinant protein: required for a robust Th1 CD4 T cell response

## CC(C)[C@H](N)C(=O)OCCOCn1cnc2c(=O)[nH]c(N)nc21 [Valacyclovir]
HSV
  reduction of HSV transmission: less than 50%
